Test results from ChEMBL document CHEMBL3124777, “Synthesis and biological evaluation of thiazoline derivatives as new antimicrobial and anticancer agents” (Eur J Med Chem, 2014).
In brackets after ≈: the same amount, converted by molar mass. Activity calls are given as the source filed them. The calls are words filed in the database; no cut-off is given here.

How the values were obtained:
[1] = test system: C6; assay: Cytotoxicity against rat C6 cells assessed as cell viability at 50 ug/ml after 24 hrs by MTT assay relative to control; assay type: functional; conditions: C6, 24 h, read-out: Activity
[2] = test system: Pseudomonas aeruginosa; assay: Antimicrobial activity against Pseudomonas aeruginosa […] after 18 to 24 hrs by microbroth dilution method; assay type: functional
[3] = test system: Listeria monocytogenes; assay: Antimicrobial activity against Listeria monocytogenes ATCC 7644 after 18 to 24 hrs by microbroth dilution method; assay type: functional
[4] = test system: C6; assay: Cytotoxicity against rat C6 cells assessed as cell viability at 200 ug/ml after 24 hrs by MTT assay relative to control; assay type: functional; conditions: C6, 24 h, read-out: Activity
[5] = test system: C6; assay: Cytotoxicity against rat C6 cells assessed as cell viability at 6 ug/ml after 24 hrs by MTT assay relative to control; assay type: functional; conditions: C6, 24 h, read-out: Activity
[6] = test system: Aspergillus ochraceus; assay: Antimicrobial activity against Aspergillus ochraceus NRRL 3174 after 48 to 72 hrs by microbroth dilution method; assay type: functional
[7] = test system: Candida albicans; assay: Antimicrobial activity against Candida albicans ATCC 22019 after 18 to 24 hrs by microbroth dilution method; assay type: functional
[8] = test system: C6; assay: Inhibition of DNA synthesis in rat C6 cells assessed as BrdU incorporation after 24 hrs by ELISA; assay type: functional, cell-based
[9] = test system: Staphylococcus aureus; assay: Antimicrobial activity against Staphylococcus aureus NRRL B-767 after 18 to 24 hrs by microbroth dilution method; assay type: functional
[10] = test system: C6; assay: Cytotoxicity against rat C6 cells assessed as cell viability at 25 ug/ml after 24 hrs by MTT assay relative to control; assay type: functional; conditions: C6, 24 h, read-out: Activity
[11] = test system: Aspergillus parasiticus; assay: Antimicrobial activity against Aspergillus parasiticus NRRL 465 after 48 to 72 hrs by microbroth dilution method; assay type: functional
[12] = test system: Fusarium culmorum; assay: Antimicrobial activity against wild type Fusarium culmorum after 48 to 72 hrs by microbroth dilution method; assay type: functional
[13] = test system: Penicillium chrysogenum; assay: Antimicrobial activity against Penicillium chrysogenum NRRL 1951 after 48 to 72 hrs by microbroth dilution method; assay type: functional
[14] = test system: Fusarium verticillioides; assay: Antimicrobial activity against Fusarium moniliforme NRRL 1866 after 48 to 72 hrs by microbroth dilution method; assay type: functional
[15] = test system: C6; assay: Inhibition of DNA synthesis in rat C6 cells assessed as BrdU incorporation at IC50 after 24 hrs by ELISA; assay type: functional, cell-based
[16] = test system: C6; assay: Cytotoxicity against rat C6 cells assessed as cell viability at 100 ug/ml after 24 hrs by MTT assay relative to control; assay type: functional; conditions: C6, 24 h, read-out: Activity
[17] = test system: Bacillus subtilis; assay: Antimicrobial activity against Bacillus subtilis NRS-744 after 18 to 24 hrs by microbroth dilution method; assay type: functional
[18] = test system: C6; assay: Cytotoxicity against rat C6 cells assessed as cell viability at 12 ug/ml after 24 hrs by MTT assay relative to control; assay type: functional; conditions: C6, 24 h, read-out: Activity
[19] = test system: NIH3T3; assay: Cytotoxicity against mouse NIH/3T3 cells after 24 hrs by MTT assay; assay type: cell-based; conditions: NIH3T3, 24 h
[20] = test system: Escherichia coli; assay: Antimicrobial activity against Escherichia coli ATCC 25922 after 18 to 24 hrs by microbroth dilution method; assay type: functional
[21] = test system: Micrococcus luteus; assay: Antimicrobial activity against Micrococcus luteus NRLL B-4375 after 18 to 24 hrs by microbroth dilution method; assay type: functional
[22] = test system: Trichoderma harzianum; assay: Antimicrobial activity against Trichoderma harzianum NRRL 20565 after 48 to 72 hrs by microbroth dilution method; assay type: functional
[23] = test system: C6; assay: Cytotoxicity against rat C6 cells after 24 hrs by MTT assay; assay type: functional, cell-based; conditions: C6, 24 h
[24] = test system: Fusarium solani; assay: Antimicrobial activity against Fusarium solani NRRL 13414 after 48 to 72 hrs by microbroth dilution method; assay type: functional

Row | MIC [2] [mg/L] | MIC [3] [mg/L] | MIC [6] [mg/L] | MIC [7] [mg/L] | MIC [9] [mg/L] | MIC [11] [mg/L] | MIC [12] [mg/L] | MIC [13] [mg/L] | MIC [14] [mg/L] | MIC [17] [mg/L] | MIC [20] [mg/L] | SMILES | viability at 50 µg/mL [1] [%] | viability at 200 µg/mL [4] [%] | viability at 6 µg/mL [5] [%] | inhibition [8] | viability at 25 µg/mL [10] [%] | inhibition [15] | viability at 100 µg/mL [16] [%] | viability at 12 µg/mL [18] [%] | IC50 [19] [mg/L] | further results
1 | 250 (≈ 546 µM) | 250 (≈ 546 µM) | 250 (≈ 546 µM) | 250 (≈ 546 µM) | 250 (≈ 546 µM) | 250 (≈ 546 µM) | 250 (≈ 546 µM) | 250 (≈ 546 µM) | 250 (≈ 546 µM) | 250 (≈ 546 µM) | 250 (≈ 546 µM) | Cc1nnc(SCC(=O)N/N=c2/scc(-c3ccc(F)cc3)n2-c2ccccc2)s1 | 37.4 | 26.5 | 74.3 | Dose-dependent effect | 50.1 | Active | 34.9 | 73.7 | 383 (≈ 838 µM) | MIC [21]: 250 mg/L (≈ 546 µM); MIC [22]: 125 mg/L (≈ 273 µM); IC50 [23]: 27.3 mg/L (≈ 59.7 µM); MIC [24]: 250 mg/L (≈ 546 µM)
2 | 250 (≈ 557 µM) | 250 (≈ 557 µM) | 250 (≈ 557 µM) | 250 (≈ 557 µM) | 250 (≈ 557 µM) | 250 (≈ 557 µM) | 250 (≈ 557 µM) | 250 (≈ 557 µM) | 250 (≈ 557 µM) | 500 (≈ 1110 µM) | 250 (≈ 557 µM) | Cn1nnnc1SCC(=O)N/N=c1/scc(-c2ccc(C#N)cc2)n1-c1ccccc1 | 35.6 | 28.6 | 63.5 | Dose-dependent effect | 43.9 | Active | 30.9 | 53.9 | 213 (≈ 476 µM) | MIC [21]: 250 mg/L (≈ 557 µM); MIC [22]: 125 mg/L (≈ 279 µM); IC50 [23]: 23.3 mg/L (≈ 51.9 µM); MIC [24]: 250 mg/L (≈ 557 µM)
3 | 250 (≈ 551 µM) | 250 (≈ 551 µM) | 250 (≈ 551 µM) | 250 (≈ 551 µM) | 500 (≈ 1100 µM) | 250 (≈ 551 µM) | 250 (≈ 551 µM) | 250 (≈ 551 µM) | 250 (≈ 551 µM) | 500 (≈ 1100 µM) | 250 (≈ 551 µM) | Cc1ccc(-c2cs/c(=N/NC(=O)CSc3nnc(C)s3)n2-c2ccccc2)cc1 | 40.6 | 13.3 | 65.9 | Dose-dependent effect | 50.1 | Active | 31.5 | 58.3 | 373 (≈ 823 µM) | MIC [21]: 250 mg/L (≈ 551 µM); MIC [22]: 250 mg/L (≈ 551 µM); IC50 [23]: 25.3 mg/L (≈ 55.8 µM); MIC [24]: 250 mg/L (≈ 551 µM)

The next lines start with the molecule.

Row | SMILES | MIC [2] [mg/L] | MIC [3] [mg/L] | MIC [6] [mg/L] | MIC [7] [mg/L] | MIC [9] [mg/L] | MIC [11] [mg/L] | MIC [12] [mg/L] | MIC [13] [mg/L] | MIC [14] [mg/L] | MIC [17] [mg/L] | MIC [20] [mg/L] | viability at 50 µg/mL [1] [%] | viability at 200 µg/mL [4] [%] | viability at 6 µg/mL [5] [%] | inhibition [8] | viability at 25 µg/mL [10] [%] | inhibition [15] | viability at 100 µg/mL [16] [%] | viability at 12 µg/mL [18] [%] | IC50 [19] [mg/L] | further results
4 | Cc1nnc(SCC(=O)N/N=c2/scc(-c3ccc(Cl)cc3)n2-c2ccccc2)s1 | 250 (≈ 527 µM) | 250 (≈ 527 µM) | 250 (≈ 527 µM) | 250 (≈ 527 µM) | 250 (≈ 527 µM) | 250 (≈ 527 µM) | 250 (≈ 527 µM) | 250 (≈ 527 µM) | 250 (≈ 527 µM) | 250 (≈ 527 µM) | 250 (≈ 527 µM) | 37.9 | 29 | 82.8 | Dose-dependent effect | 53.3 | Active | 34.1 | 76.6 | 253 (≈ 534 µM) | MIC [21]: 250 mg/L (≈ 527 µM); MIC [22]: 125 mg/L (≈ 264 µM); IC50 [23]: 28 mg/L (≈ 59.1 µM); MIC [24]: 250 mg/L (≈ 527 µM)
5 | O=C(CSc1nnnn1-c1ccccc1)N/N=c1/scc(-c2ccc(F)cc2)n1-c1ccccc1 | 250 (≈ 496 µM) | 250 (≈ 496 µM) | 250 (≈ 496 µM) | 250 (≈ 496 µM) | 250 (≈ 496 µM) | 250 (≈ 496 µM) | 125 (≈ 248 µM) | 250 (≈ 496 µM) | 250 (≈ 496 µM) | 500 (≈ 993 µM) | 250 (≈ 496 µM) | 43.7 | 30.6 | 74.9 | Dose-dependent effect | 49.3 | Active | 35.8 | 60 | 207 (≈ 410 µM) | MIC [21]: 250 mg/L (≈ 496 µM); MIC [22]: 125 mg/L (≈ 248 µM); IC50 [23]: 24.3 mg/L (≈ 48.3 µM); MIC [24]: 250 mg/L (≈ 496 µM)
6 | COc1ccc(-c2cs/c(=N/NC(=O)CSc3nnc(C)s3)n2-c2ccccc2)cc1 | 250 (≈ 532 µM) | 250 (≈ 532 µM) | 250 (≈ 532 µM) | 250 (≈ 532 µM) | 250 (≈ 532 µM) | 250 (≈ 532 µM) | 250 (≈ 532 µM) | 250 (≈ 532 µM) | 250 (≈ 532 µM) | 250 (≈ 532 µM) | 250 (≈ 532 µM) | 31.5 | 22.2 | 57.9 | Dose-dependent effect | 42.6 | Active | 25.9 | 53.6 | 300 (≈ 639 µM) | MIC [21]: 250 mg/L (≈ 532 µM); MIC [22]: 125 mg/L (≈ 266 µM); IC50 [23]: 18.7 mg/L (≈ 39.8 µM); MIC [24]: 250 mg/L (≈ 532 µM)
7 | O=C(CSc1nnnn1-c1ccccc1)N/N=c1/scc(-c2ccccc2)n1-c1ccccc1 | 250 (≈ 515 µM) | 250 (≈ 515 µM) | 250 (≈ 515 µM) | 250 (≈ 515 µM) | 250 (≈ 515 µM) | 250 (≈ 515 µM) | 125 (≈ 257 µM) | 250 (≈ 515 µM) | 250 (≈ 515 µM) | 500 (≈ 1030 µM) | 250 (≈ 515 µM) | 36.7 | 22.6 | 52.1 | Dose-dependent effect | 42.5 | Active | 35.8 | 47.1 | 417 (≈ 858 µM) | MIC [21]: 250 mg/L (≈ 515 µM); MIC [22]: 125 mg/L (≈ 257 µM); IC50 [23]: 8.3 mg/L (≈ 17.1 µM); MIC [24]: 250 mg/L (≈ 515 µM)
